Source: patent publication US10413505B1, “Pharmaceutical compositions and methods of using the same” (priority 2017, dated 2019)
Marks after values point to notes of the source that are not given here.

Legend:
[1] = Example 3 urinary pharmacokinetics, normal hepatic function vs hepatic impairment; assay type: in vivo, human; conditions: for Urine Recovery as % of Dose, Geomean / Urine Recovery as % of Dose, Mean: 0-32 h, single intranasal dose; for CLr Geomean / CLr Mean: Table 26
Description: Urine was collected prior to dosing and from 0-2, 2-4, 4-8, 8-12, 12-24, and 24-32 hours after beginning of dose application. […] Urinary pharmacokinetic parameters included total urinary recovery (μg), urinary recovery as a percentage of dose, and CLr.

[2] = Example 2 urinary pharmacokinetics, normal renal function vs severe renal impairment; conditions: single intranasal 160 mg cocaine HCl; for 0 to 32 hour urinary recovery (geometric mean) / 0 to 32 hour urinary recovery (mean) / 0 to 32 hour urinary recovery (median): metabolites as cocaine equivalents
Description: For the urine analysis of cocaine, BE, and EME, individual urinary recoveries for each analyte were determined over each collection interval as the product of the urine concentration times the urine volume. The total recoveries were determined as the sum of the recoveries over all the intervals. Total urinary recoveries were also expressed as the percentage of the administered dose, after correction for the molecular weight of each analyte. The renal clearances of cocaine, BE, and EME were determined as the urinary recovery (in μg) divided by the plasma AUC over the same time interval (the longest period for which both plasma and urine measurements were available).
Urine was collected prior to dosing and from 0-2, 2-4, 4-8, 8-12, 12-24, and 24-32 hours after the beginning of dose application. […] Testing methods used were consistent with those used by inVentiv Health Clinical Lab, Inc., Miami, Fla., U.S.A. Urinary pharmacokinetic parameters included total urinary recovery (μg), urinary recovery as a percentage of dose, and CLr.

[3] = Example 1 single-dose plasma pharmacokinetics after intranasal administration; assay type: in vivo, human; conditions: healthy subjects; single intranasal 160 mg cocaine HCl; plasma, >12 h after dosing
Description: Single-dose plasma and urinary pharmacokinetics of the pharmaceutical composition following intranasal administration was characterized in this study. This was a single-dose study in 30 healthy volunteers. The objective of the study was to examine the systemic pharmacokinetics of the pharmaceutical composition following acute, topical intranasal administration.
A single dose of a pharmaceutical composition was administered to both nostrils using cottonoid pledgets. […] Each pledget absorbed approximately 1 mL of pharmaceutical composition (i.e., 40 mg cocaine hydrochloride). Two soaked pledgets were placed into each nasal cavity of the subject and against the anterior septum for 20 minutes; thus, a total dose of 160 mg of cocaine hydrochloride was administered.
Blood samples were collected pre-dose (30 minutes before pledget insertion), and 7.5, 15, 20, 30, 45, 60, 75, 90, and 105 minutes and 2, 3, 4, 6, 8, 10, and 12 hours from the start of application of the pharmaceutical composition.
The effect of gender on Cmax, Tmax, AUClast, AUCinf, and t1/2 was determined. The effects of age, body weight, and BMI on AUClast were determined.

[4] = normal hepatic function, single intranasal 160 mg cocaine HCl
[5] = subjects with hepatic impairment
[6] = subjects with hepatic impairment, 32 hours post administration
[7] = subjects with hepatic impairment, Table 30
[8] = subjects with normal hepatic function
[9] = severe renal impairment, listed as Ecgonine Methyl Ester

COC(=O)[C@@H]1[C@H]2CC[C@@H](C[C@@H]1O)N2C [EME, ecgonine methyl ester]
Urine Recovery as % of Dose, Geomean ([1]; Impaired hepatic function): 2.43 % of Dose
Urine Recovery as % of Dose, Mean ([1]; Impaired hepatic function): 3.51 % of Dose
CLr Geomean ([1]; Impaired hepatic function): 10.2 L/h
CLr Mean ([1]; Impaired hepatic function): 10.9 L/h
Urine Recovery as % of Dose, Geomean ([1]; Normal hepatic function): 0.93 % of Dose
Urine Recovery as % of Dose, Mean ([1]; Normal hepatic function): 1.12 % of Dose
CLr Geomean ([1]; Normal hepatic function): 14.6 L/h
CLr Mean ([1]; Normal hepatic function): 17.2^d L/h
0-32 h Urinary Recovery (geometric mean) [1, 4]: 875.2 µg
0-32 h Urinary Recovery (mean) [1, 4]: 1048.23 µg
0-32 h Urinary Recovery (median) [1, 4]: 1164.3 µg
Renal Clearance, geometric mean [1, 5]: 169.75 mL/min
Renal Clearance, mean [1, 5]: 181.23 mL/min
Renal Clearance, median [1, 5]: 160.92 mL/min
0-32 h Urinary Recovery (geometric mean) [1, 6]: 2278.1 µg
0-32 h Urinary Recovery (mean) [1, 6]: 3294 µg
0-32 h Urinary Recovery (median) [1, 6]: 2249.7 µg
Renal Clearance, geometric mean [1, 7]: 169.753 mL/min
Renal Clearance, mean [1, 7]: 181.233 mL/min
Renal Clearance, median [1, 7]: 160.92 mL/min
Renal Clearance, geometric mean [1, 8]: 243.011 mL/min
Renal Clearance, mean [1, 8]: 286.128 mL/min
Renal Clearance, median [1, 8]: 219.782 mL/min
0-32 h Urinary Recovery (geometric mean) ([2]; normal renal function): 894.9 µg
0-32 h Urinary Recovery (mean) ([2]; normal renal function): 1095 µg
0-32 h Urinary Recovery (median) ([2]; normal renal function): 892.8 µg
Renal Clearance, CLr (geometric mean) ([2]; normal renal function): 18.1 L/h
Renal Clearance, CLr (mean) ([2]; normal renal function): 19.1 L/h
Renal Clearance, CLr (median) ([2]; normal renal function): 21.4 L/h
Renal Clearance, geometric mean ([2]; normal renal function): 302.2 mL/min
Renal Clearance, mean ([2]; normal renal function): 317.8 mL/min
Renal Clearance, median ([2]; normal renal function): 356.1 mL/min
0 to 32 hour urinary recovery (geometric mean) ([2]; normal renal function): 0.954 % of administered dose
0 to 32 hour urinary recovery (mean) ([2]; normal renal function): 1.17 % of administered dose
0 to 32 hour urinary recovery (median) ([2]; normal renal function): 0.952 % of administered dose
0 to 32 hour urinary recovery (mean) ([2]; normal renal function, listed as Ecgonine Methyl Ester): 1.167 % of administered dose
0-32 h Urinary Recovery (geometric mean) ([2]; severe renal impairment): 1177.8 µg
0-32 h Urinary Recovery (mean) ([2]; severe renal impairment): 1425 µg
0-32 h Urinary Recovery (median) ([2]; severe renal impairment): 1104 µg
Renal Clearance, CLr (geometric mean) ([2]; severe renal impairment): 4.23 L/h
Renal Clearance, CLr (mean) ([2]; severe renal impairment): 4.95 L/h
Renal Clearance, CLr (median) ([2]; severe renal impairment): 4.05 L/h
Renal Clearance, geometric mean ([2]; severe renal impairment): 70.6 mL/min
Renal Clearance, mean ([2]; severe renal impairment): 82.5 mL/min
Renal Clearance, median ([2]; severe renal impairment): 67.6 mL/min
0 to 32 hour urinary recovery (geometric mean) ([2]; severe renal impairment): 1.26 % of administered dose
0 to 32 hour urinary recovery (mean) ([2]; severe renal impairment): 1.52 % of administered dose
0 to 32 hour urinary recovery (median) ([2]; severe renal impairment): 1.177 % of administered dose
0 to 32 hour urinary recovery (geometric mean) [2, 9]: 1.255 % of administered dose
0 to 32 hour urinary recovery (mean) [2, 9]: 1.519 % of administered dose
plasma level not exceeded (metabolite not detectable in plasma) [3]: ≤ 50 ng/mL
